Data: patent US20180265867A1, “NUCLEIC ACID MOLECULES WITH ENHANCED ACTIVITY” (priority 2015, published 2018)
d = 2'-deoxy (DNA); r = 2'-OH (RNA)

Test system: MG63 cells
Assay: Fluorescence / confocal microscopy of cellular distribution in MG63 cells
Format: cell-based, human
Conditions: fluorescently labelled, transfection reagent free
Protocol: Cellular uptake experiments were performed by plating cells (1×10^4) in an 8 well chamber slide. At 70% confluency, the cells were transfected with 50 nM Cy3-cpRNA and incubated at 37° C. for 24 h. Control wells were left untreated. Each transfection was performed in triplicate. […] The slides were mounted using Vectashield mounting medium containing 4′, 6-diamidino-2-phenylindole (DAPI) (Vector Labs, Burlingame, Calif.) to stain the nuclei of cells.
MG63—human osteosarcoma cells were cultured in α-MEM (Sigma-Aldrich, Haverhill, UK) medium containing 10% FBS, 1% L-Glutamine, and 1% antibiotics (PeSt) at 37° C. with 5% CO2. One day prior to the siRNA treatment, 35,000 cells were plated per each well of a 24-well plate. On the experiment day, cells were replaced with 10% heat inactivated-FBS containing α-MEM medium with 1% L-Glutamine, and 1% antibiotics (PeSt). Fluorescently (Cy3) labelled CP-siRNA and nicked CP-siRNA having GAPDH targeting sequence (final concentration: 50 nM) was given to the each well. After 24 hours the cells were washed with PBS and fixed with 4% formaldehyde for 20 mins at room temperature and then washed twice with PBS. DAPI (1 ug/ml in PBS) was added to cells for 5 mins and then washed with PBS. The cells were then visualized in Nikon TiU at 20×+1.5× and analysed with the Nikon Imaging software.

Substance	cellular distribution
CP-siRNA: GAPDH CP-siRNA, sense SEQ ID NO: 26 with dT5, antisense SEQ ID NO: 27; Cy3 labelled for imaging (sense CCGAGCCACAUCGCUCAGATTTTT; antisense UCUGAGCGAUGUGGCUCGGTT; sense: sugars from the 5' end r19 d5, backbone not given here; antisense: sugars from the 5' end r19 d2, backbone not given here; Cy3 label)	perinuclear distribution
nicked CP-siRNA: Nicked GAPDH CP-siRNA, sense SEQ ID NO: 28, nicked antisense sequences a and b SEQ ID NO: 29 and 30 (sense CCGAGCCACAUCGCUCAGATTTTT; antisense 1 UCUGAGCGAU; antisense 2 GUGGCUCGG; sense: sugars from the 5' end r19 d5, backbone not given here; antisense 1: RNA, backbone not given here; antisense 2: RNA, backbone not given here; further chemistry not fully specified)	some nuclear localization

Test system: 3p or 5p miR34a target-site in 3′ UTR of Renilla luciferase
Assay: Dual glo assay of miR34a strand selection in HCT116 cells
Format: cell-based, human
Conditions: 50 nM miRNA, 300 ng plasmid, RNAiMAX, 24 h
Protocol: For all experiments RNAiMAX was used for transfection of both plasmid and miRNA in accordance with manufacturer's instructions, but with altered RNA and plasmid concentrations. For Dual glo assay, cells were co-transfected with 50 nM miRNA and 300 ng plasmid. For qPCR cells were transfected with 100 nM miRNA.
HCT116 cells were seeded 10000 cells per well in a 96 well plate and transfected with both plasmid and miRNA 24 hours later. All transfections were performed in triplicates. The plasmids used were the dual luciferase reporter plasmid with either a 3p or 5p miR34a target-site cloned into the 3′ UTR (denoted plasmid 3 or plasmid 5). After 24 hours 75 μl of Dual glo firefly substrate (Promega) was added to each well. 100 μl of cell-lysate was moved to a microtiter plate after 10 minutes of incubation and luminescence was measured and it was followed by addition of 75 μl of Stop glo Renilla substrate (Promega) to the same plate and luminescence was measured again after 10 minutes of incubation. The Renilla luminescence values were normalized against the firefly luminescence values and expressed as a percentage of the negative control, a scrambled non-functional miRNA.
Dual glo assay and RT-qPCR were performed to identify the degree of strand selection of the modified miRNA. First, we designed two different plasmids (psiCheck2 vector) such that miRNA target-sequence (3p or 5p) is cloned into the 3′-UTR of the Renilla luciferase gene (see FIG. 16) with firefly luciferase as the internal control to normalize the Renilla luciferase expression. We estimated the levels of the individual strand recruitment (3p or 5p) using the dual-glo luminesce assay. The target-sequence corresponds exactly to either the 3p or 5p strands, and a change in luminescence can be directly attributed to the gene silencing efficiency.
Four independent trials of dual glo assay were performed, with each of the samples in triplicates. Luminescence is shown as a percentage of the scrambled miRNA which serves as the negative control. Two different modifications were used on each of the strands of the miR34a (see Table 5). The miR34a was modified to make the 5p strand the guide strand by incorporating three deoxy thymidine residues at the 3′ end of the 3p strand (mod5a).

Substance	strand selection (Dual glo luminescence)
mod3a: miR34a with three deoxy thymidines added to 3′ end of 5p strand, SEQ ID NO: 20 and 35 (chain 1 CAAUCAGCAAGUAUACUGCCCU; chain 2 UGGCAGUGUCUUAGCUGGUUGUTTT; chain 1: RNA, backbone not given here; chain 2: sugars from the 5' end r22 d3, backbone not given here)	slight increase in strand selection but this was not statistically significant
mod3b: miR34a with five deoxy thymidines added to 3′ end of 5p strand, SEQ ID NO: 20 and 36 (chain 1 CAAUCAGCAAGUAUACUGCCCU; chain 2 UGGCAGUGUCUUAGCUGGUUGUTTTTT; chain 1: RNA, backbone not given here; chain 2: sugars from the 5' end r22 d5, backbone not given here)	slight increase in strand selection but this was not statistically significant
mod5a: miR34a with three deoxy thymidines added to 3′ end of 3p strand, SEQ ID NO: 37 and 21 (chain 1 CAAUCAGCAAGUAUACUGCCCUTTT; chain 2 UGGCAGUGUCUUAGCUGGUUGU; chain 1: sugars from the 5' end r22 d3, backbone not given here; chain 2: RNA, backbone not given here)	3p strand being less chosen as the guide strand
mod5b: miR34a with five deoxy thymidines added to 3′ end of 3p strand, SEQ ID NO: 38 and 21 (chain 1 CAAUCAGCAAGUAUACUGCCCUTTTTT; chain 2 UGGCAGUGUCUUAGCUGGUUGU; chain 1: sugars from the 5' end r22 d5, backbone not given here; chain 2: RNA, backbone not given here)	3p strand being less chosen as the guide strand
